The source made the active and inactive calls.

The test system of data set [1] is HeLa. As to the kind of experiment: Induction of apoptosis in human HeLa cells assessed as necrotic cells at 750 nM incubated for 24 hrs by annexin V FITC and propidium iodide staining based flow cytometry analysis (reference value: 1.14 %). Type of data set: functional. (In flow cytometry, cells or beads pass a laser one at a time.)
For data set [2], the system named is HeLa. Briefly: Induction of apoptosis in human HeLa cells assessed as viable cells at 500 nM incubated for 24 hrs by annexin V FITC and propidium iodide staining based flow cytometry analysis (reference value: 85.7%). Type of data set: functional. The settings on record: read-out: Activity.
For data set [3], the system named is HeLa. As to the kind of experiment: Induction of apoptosis in human HeLa cells assessed as late apoptotic cells at 500 nM incubated for 24 hrs by annexin V FITC and propidium iodide staining based flow cytometry analysis (reference value: 0.05%). Type of data set: functional.
The test system of data set [4] is HeLa. Briefly: Induction of apoptosis in human HeLa cells assessed as viable cells at 100 nM incubated for 72 hrs by annexin V FITC and propidium iodide staining based flow cytometry analysis (reference value: 90.1%). Type of data set: functional. Particulars: read-out: Activity.
The test system of data set [5] is HeLa. As to the kind of experiment: Induction of apoptosis in human HeLa cells assessed as viable cells at 500 nM incubated for 48 hrs by annexin V FITC and propidium iodide staining based flow cytometry analysis (reference value: 85.5%). Type of data set: functional. The settings on record: read-out: Activity.
The subject of data set [6] is HeLa. Briefly: Induction of mitochondrial membrane potential alteration in human HeLa cells assessed as viable cells at 250 nM measured after 48 hrs by JC1 staining-based flow cytometry analysis (reference value: 90.9%). Particulars: read-out: Activity. Type of data set: functional.
Another data set relates to HL-60. Briefly: Antiproliferative activity against human HL-60 cells assessed as reduction in cell viability incubated for 48 hrs by MTS assay. Type of data set: functional, cell-based. The settings on record: HL-60, 48 h.
Data set [7] relates to HeLa. Briefly: Induction of apoptosis in human HeLa cells assessed as late apoptotic cells at 100 nM incubated for 48 hrs by annexin V FITC and propidium iodide staining based flow cytometry analysis (reference value: 8.87%). Type of data set: functional.
The subject of data set [8] is HeLa. Briefly: Induction of cell cycle arrest in human HeLa cells assessed as reduction of cells at G1 phase at 100 to 2000 nM incubated for 24 to 48 hrs by […] flow cytometry. Type of data set: functional. The settings on record: dose 100-2000 nM, time 24-48 hrs.
The subject of data set [9] is HeLa. As to the kind of experiment: Induction of apoptosis in human HeLa cells assessed as early apoptotic cells at 750 nM incubated for 72 hrs by annexin V FITC and propidium iodide staining based flow cytometry analysis (reference value: 2.36%). Type of data set: functional.
The subject of data set [10] is HeLa. Briefly: Induction of apoptosis in human HeLa cells assessed as viable cells at 750 nM incubated for 72 hrs by annexin V FITC and propidium iodide staining based flow cytometry analysis (reference value: 90.1%). Type of data set: functional. The settings on record: read-out: Activity.
Data set [11] can be described thus: Metabolic stability in rat liver microsomes assessed as half life incubated for 5 mins in presence of NADPH by HPLC analysis. Type of data set: ADME, Microsome.
The test system of data set [12] is HeLa. Briefly: Induction of apoptosis in human HeLa cells assessed as viable cells at 1 uM incubated for 24 hrs by annexin V FITC and propidium iodide staining based flow cytometry analysis (reference value: 85.7%). Type of data set: functional. Particulars: read-out: Activity.
Data set [13] deals with HeLa. Briefly: Induction of mitochondrial membrane potential alteration in human HeLa cells assessed as late apoptotic cells at 1 uM measured after 48 hrs by JC1 staining-based flow cytometry analysis (reference value: 0.009%). Type of data set: functional.
Data set [14] has as its system HeLa. As to the kind of experiment: Induction of apoptosis in human HeLa cells assessed as viable cells at 1 uM incubated for 72 hrs by annexin V FITC and propidium iodide staining based flow cytometry analysis (reference value: 90.1%). Type of data set: functional. The settings on record: read-out: Activity.
The test system of data set [15] is HeLa. Briefly: Induction of apoptosis in human HeLa cells assessed as early apoptotic cells at 1 uM incubated for 48 hrs by annexin V FITC and propidium iodide staining based flow cytometry analysis (reference value: 6.01%). Type of data set: functional.
Data set [16] concerns HeLa. As to the kind of experiment: Induction of apoptosis in human HeLa cells assessed as viable cells at 750 nM incubated for 24 hrs by annexin V FITC and propidium iodide staining based flow cytometry analysis (reference value: 85.7%). Type of data set: functional. Particulars: read-out: Activity.
In data set [17] the test system is HeLa. As to the kind of experiment: Induction of apoptosis in human HeLa cells assessed as early apoptotic cells at 500 nM incubated for 24 hrs by annexin V FITC and propidium iodide staining based flow cytometry analysis (reference value: 0.12%). Type of data set: functional.
Data set [18] deals with HeLa. As to the kind of experiment: Induction of apoptosis in human HeLa cells assessed as necrotic cells at 750 nM incubated for 48 hrs by annexin V FITC and propidium iodide staining based flow cytometry analysis (reference value: 1.85 %). Type of data set: functional.
A short description of data set [19]: Metabolic stability in rat liver microsomes incubated for 5 mins in absence of NADPH by HPLC analysis. Type of data set: ADME, Microsome.
Data set [20] relates to HeLa. Briefly: Induction of apoptosis in human HeLa cells assessed as early apoptotic cells at 100 nM incubated for 24 hrs by annexin V FITC and propidium iodide staining based flow cytometry analysis (reference value: 0.12%). Type of data set: functional.

With `COc1cc(C(=O)c2nc(N3CCCC3)nc3ccsc23)cc(OC)c1OC`, the Activity in the data set on HeLa [1] is given as 3.09%; in the data set on HeLa [3], 6.42%; in the data set on HeLa [7], 5.18%; with HeLa [9] it was 1.24%; with HeLa [13], 0.053%; with HeLa [15], 2.09%. The Activity in the data set with HeLa [17] stood at 6.1%; in the data set with HeLa [18] it was 22.5%; in the data set with HeLa [20] it was 2.98%. Moreover, the figures for the viability at 0.5 µM in the data set with HeLa [2] and in the data set on HeLa [5] were 80.1% and 78.1%, respectively. The viability at 0.1 µM in the data set with HeLa [4] is 85.1%. Further, in the data set with HeLa [6], the viability at 0.25 µM worked out at 90.5%. The IC50 with HL-60 was 8 nM. Besides, in the data set on HeLa [8], the outcome was Active. Also, the viability at 0.75 µM with HeLa [10] came to 27.7%; with HeLa [16], 81.3%. Further, the half-life in data set [11] came to 17 min. Moreover, the viability at 1 µM in the data set with HeLa [12] is 80.1%; in the data set on HeLa [14] it was 27.9%. Also, in data set [19], the Stability result is on record as “Stable”.

As usually defined, the IC50 is the concentration that gives 50% inhibition. In general, half-life refers to the time needed for the level to fall by half in the phase considered.

For the origin of these results see ChEMBL document CHEMBL5126582, “Discovery of (2-(pyrrolidin-1-yl)thieno[3,2-d]pyrimidin-4-yl)(3,4,5-trimethoxyphenyl)methanone as a novel potent tubulin depolymerizing and vascular disrupting agent” (Eur J Med Chem, 2022).
